The source of these data is ChEMBL document CHEMBL1649473, “Crystal structure of Bacillus anthracis dihydrofolate reductase with the dihydrophthalazine-based trimethoprim derivative RAB1 provides a structural explanation of potency and selectivity” (Antimicrob Agents Chemother, 2009).

Where only a bound is given, the exact number is not on record here.

The target of assay [1] is T1, Dihydrofolate reductase (Bacillus anthracis, UniProt Q81R22).
T1 sequence (Q81R22 whole entry): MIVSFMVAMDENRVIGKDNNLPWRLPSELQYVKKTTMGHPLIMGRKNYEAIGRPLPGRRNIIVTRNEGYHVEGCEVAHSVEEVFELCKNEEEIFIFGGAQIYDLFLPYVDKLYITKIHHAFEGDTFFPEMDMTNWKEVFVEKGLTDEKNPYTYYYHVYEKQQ
Briefly: Inhibition of Bacillus anthracis DHFR.

Assay [2] concerns Bacillus anthracis. Put plainly: Antibacterial activity against Bacillus anthracis. The class given is functional.
The target of assay [3] is T2, Dihydrofolate reductase (Homo sapiens, UniProt P00374).
T2 sequence (P00374 whole entry): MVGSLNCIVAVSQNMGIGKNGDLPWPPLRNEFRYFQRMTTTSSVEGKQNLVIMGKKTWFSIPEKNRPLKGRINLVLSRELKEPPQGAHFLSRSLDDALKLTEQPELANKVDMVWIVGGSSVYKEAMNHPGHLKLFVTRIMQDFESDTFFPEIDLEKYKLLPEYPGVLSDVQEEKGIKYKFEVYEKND
Briefly: Inhibition of human DHFR.

Regarding `CCC[C@H]1c2ccccc2C=NN1C(=O)/C=C/c1cc(Cc2cnc(N)nc2N)cc(OC)c1OC`, the IC50 in assay [1] is 54 nM; in assay [3] it was 110000 nM. Also, the minimal inhibitory concentration (MIC) in assay [2] is ≤ 12.8 µg/mL.

As to `C=CC(=O)N1N=Cc2ccccc2C1CCC` (stereo unspecified), the IC50 in assay [1] came to 46 nM.

In turn, `CC[C@H]1c2ccccc2C=NN1C(=O)/C=C/c1cc(Cc2cnc(N)nc2N)cc(OC)c1OC` had an IC50 in assay [1] of 96 nM.

`CCCC[C@H]1c2ccccc2C=NN1C(=O)/C=C/c1cc(Cc2cnc(N)nc2N)cc(OC)c1OC` yielded an IC50 in assay [1] of 170 nM.
